Columns and labels:
[1] = test system: hepatitis B virus-producing HepG2.2.15 cells; assay: Antiviral test: reduction of HBV DNA in HepG2.2.15 cells (dot-blot hybridization); type: cell-based; conditions: HepG2.2.15, 96 h
Description: The antiviral action of the compounds according to the invention was investigated by methods based on those described by M. A. Sells et al., Proc. Natl. Acad. Sci. 84, 1005-1009 (1987) and B. E. Korba et al., Antiviral Research 19, 55-70 (1992).
The antiviral tests were carried out in 96-well microtitre plates. The first vertical row of the plate received only growth medium and HepG2.2.15 cells. It served as virus control.
Stock solutions of the test compounds (50 mM) were initially dissolved in DMSO, and further dilutions were prepared in the HepG2.2.15 growth medium. The compounds according to the invention were usually pipetted in a test concentration of 100 μM (1st test concentration) in each case into the second vertical test row of the microtitre plate and subsequently diluted in twofold steps 2^10 times in growth medium+2% by weight fetal calf serum (volume 25 μl).
Each well of the microtitre plate then contained 225 μl of HepG2.2.15 cell suspension (5×10^4 cells/ml) in growth medium+2% by weight of fetal calf serum.
The test mixture was incubated at 37° C. and 5% CO2 (v/v) for 4 days.
The supernatant was then aspirated off and discarded, and the wells received 225 μl of freshly prepared growth medium. The compounds according to the invention were each added anew as 10-fold concentrated solution in a volume of 25 μl. The mixtures were incubated for a further 4 days.
The supernatants/cells were then harvested and sucked by means of a vacuum onto 96-well dot-blot chambers covered with a nylon membrane (in accordance with the manufacturer's information).
After the supernatants or cells had been transferred to the nylon membrane of the blot apparatus (see above), the supernatants of the HepG2.2.15 cells were denatured (1.5 M NaCl/0.5 N NaOH), neutralized (3M NaCl/0.5M Tris HCl, pH 7.5) and washed (2×SSC). The DNA was then baked onto the membrane by incubating the filters at 120° C. for 2-4 hours.
Detection of the viral DNA from the treated HepG2.2.15 cells on the nylon filters was easily carried out with non-radioactive, digoxigenin-labelled hepatitis B-specific DNA probes, each of which was labelled with digoxigenin, purified and employed for the hybridization in accordance with the manufacturer's information.
The prehybridization and hybridization took place in 5×SSC, 1× blocking reagent, 0.1% by weight N-lauroylsarcosine, 0.02% by weight SDS and 100 μg of herring sperm DNA. The prehybridization took place at 60° C. for 30 minutes, and the specific hybridization with 20 to 40 ng/ml of the digoxigenized, denatured HBV-specific DNA took place at 60° C. for 14 hours. The filters were then washed.
The immunological detection of the digoxigenin-labelled DNA took place in accordance with the manufacturer's information:
The filters were washed and prehybridized in a blocking reagent (in accordance with the manufacturer's information). Hybridization was then carried out with an anti-DIG antibody coupled to alkaline phosphatase for 30 minutes. After a washing step, the substrate of alkaline phosphatase, CSPD, was added, incubated with the filters for 5 minutes, then packed in plastic film and incubated at 37° C. for a further 15 minutes.
The chemiluminescence of the hepatitis B-specific DNA signals was visualized by exposing the filters to an X-ray film (incubation depending on signal strength: 10 minutes to 2 hours).
The half-maximum inhibitory concentration (IC-50, 50% inhibitory concentration) was determined as the concentration at which the hepatitis B-specific band was reduced by the compound according to the invention by 50% compared with an untreated sample.

HepG2.2.15 cells = assay: Cytotoxicity determination in HepG2.2.15 cells; type: cell-based; conditions: 50% cytotoxicity
Description: Before harvesting the supernatants and/or cells to determine the antiviral effect, the HepG2.2.15 cells were examined under the light microscope or by means of biochemical detection methods (for example Alamar Blue stain or Trypan Blue stain) for cytotoxic changes.
Substance-induced cytotoxic or cytostatic changes in the HepG2.2.15 cells were detected, for example, under the light microscope as changes in cell morphology. Such substance-induced changes in the HepG2.2.15 cells compared with untreated cells were visible, for example, as cytolysis, vacuolation or altered cell morphology.
The tolerability of some of the compounds according to the invention was additionally tested on other host cells such as, for example, HeLa cells, primary human peripheral blood cells or transformed cell lines such as H-9 cells.
As a rule, the compounds according to the invention were tolerated up to concentrations of 10 μM (Tox. −50).

SMILES	IC50 [1] [nM]	Tox-50 (HepG2.2.15 cells) [μM/l]
Cc1cc(NC(=O)c2c(C)noc2C)ccc1F [Example 2, N-(4-Fluoro-3-methylphenyl)-3,5-dimethylisoxazole-4-carboxamide]	200	>100
CCc1onc(C)c1C(=O)Nc1ccc(F)c(Cl)c1 [Example 12]	500	>100
Cc1cc(NC(=O)c2c(C)noc2C(F)(F)F)ccc1F [Example 16]	750	>100
CCCc1onc(C)c1C(=O)Nc1cccc(C)c1 [Example 21]	1000	>100
Cc1cccc(NC(=S)c2c(C)noc2C)c1 [Example 29]	4000	>100
Cc1oncc1C(=O)Nc1ccc(C(F)(F)F)cc1 [Leflunamide, N-(4-trifluoromethylphenyl)-5-methylisoxazole-4-carboxamide, reference compound]	> 70000	70

Source: patent publication US20030187028A1, “Medicament for viral diseases” (priority 2000, published 2003)
